Results published in ChEMBL document CHEMBL2384902, “Synthesis and ionophoric activities of functionalized bis(choloyl) conjugates with a rigid core” (Bioorg Med Chem Lett, 2013).

Columns and labels:
[1] = Ionophoric activity across egg-yolk L-alpha-phosphatidylcholine-based liposomal membranes (unknown origin) assessed as induction of pH discharge at 0.5 to 3 mol % at internal pH 7 and external aqueous phase pH 8 by pyranine dye-based method; assay type: physicochemical; details: artificial membrane
[2] = Ratio of k2 to K for ionophoric activity across egg-yolk L-alpha-phosphatidylcholine-based liposomal membranes (unknown origin)
[3] = Ionophoric activity across egg-yolk L-alpha-phosphatidylcholine-based liposomal membranes (unknown origin) assessed as change in fluorescence intensity at 3 mol % by pyranine dye-based method in presence of chloride ions in internal and sulfate ions in external vesicles; assay type: physicochemical; details: artificial membrane
[4] = Ionophoric activity across egg-yolk L-alpha-phosphatidylcholine-based liposomal membranes (unknown origin) assessed as induction of pH discharge at internal pH 7 and external aqueous phase pH 8 by pyranine dye-based method; assay type: physicochemical; details: artificial membrane

Activity [1]	Activity [3]	K [4]	SMILES	Ratio (10'-4/min.mol%'-4) [2]	Ratio (10'-5/min.mol%'-4) [2]
Active	Not Active	1.81 ×10⁻² /min	C[C@H](CCC(=O)NC(CCCCN)C(=O)Nc1ccc(NC(=O)C(CCCCN)NC(=O)CC[C@@H](C)[C@H]2CC[C@H]3[C@@H]4[C@H](O)C[C@@H]5C[C@H](O)CC[C@]5(C)[C@H]4C[C@H](O)[C@]23C)cc1)[C@H]1CC[C@H]2[C@@H]3[C@H](O)C[C@@H]4C[C@H](O)CC[C@]4(C)[C@H]3C[C@H](O)[C@]12C (some centres not stated)	5.5	–
Active	Not Active	1.81 ×10⁻² /min	C[C@H](CCC(=O)NC(CCCCN)C(=O)NCc1ccc(CNC(=O)C(CCCCN)NC(=O)CC[C@@H](C)[C@H]2CC[C@H]3[C@@H]4[C@H](O)C[C@@H]5C[C@H](O)CC[C@]5(C)[C@H]4C[C@H](O)[C@]23C)cc1)[C@H]1CC[C@H]2[C@@H]3[C@H](O)C[C@@H]4C[C@H](O)CC[C@]4(C)[C@H]3C[C@H](O)[C@]12C (some centres not stated)	5.2	–
Active	Not Active	–	CC(=O)NCCCCC(NC(=O)CC[C@@H](C)[C@H]1CC[C@H]2[C@@H]3[C@H](O)C[C@@H]4C[C@H](O)CC[C@]4(C)[C@H]3C[C@H](O)[C@]12C)C(=O)NCc1ccc(CNC(=O)C(CCCCNC(C)=O)NC(=O)CC[C@@H](C)[C@H]2CC[C@H]3[C@@H]4[C@H](O)C[C@@H]5C[C@H](O)CC[C@]5(C)[C@H]4C[C@H](O)[C@]23C)cc1 (some centres not stated)	–	–
Active	–	–	C[C@H](CCC(=O)NCc1ccc(CNC(=O)CC[C@@H](C)[C@H]2CC[C@H]3[C@@H]4[C@H](O)C[C@@H]5C[C@H](O)CC[C@]5(C)[C@H]4C[C@H](O)[C@]23C)cc1)[C@H]1CC[C@H]2[C@@H]3[C@H](O)C[C@@H]4C[C@H](O)CC[C@]4(C)[C@H]3C[C@H](O)[C@]12C	–	9
